# In patent publication EP0245669B1, “Pharmaceutical preparation for preventing damage to living cells by free radicals, or for increasing the efficacy of organic sulphur compounds, and process for increasing the life span of isolated organs” (Medopharm Arzneimittelwerk Dr. Zillich GmbH & Co., priority 1986, dated 1987):
# Legend:
# weiblichen C3H Mäusen = experiment: Radiation protection: survival of mice after gamma irradiation (cobalt-60) following i.p. pretreatment; type: in vivo, Mäuse; details: for Ueberlebensrate nach Bestrahlung mit 9 Gy Anzahl / Ueberlebensrate nach Bestrahlung mit 10 Gy Anzahl / Ueberlebensrate nach Bestrahlung mit 11 Gy Anzahl / Ueberlebensrate nach Bestrahlung mit 12 Gy Anzahl / Ueberlebensrate nach Bestrahlung mit 13 Gy Anzahl: surviving/irradiated mice; for Ueberlebensrate in %: best result with zinc aspartate alone, 30 days after irradiation; for Ueberleben einer Bestrahlung von 14 Gy: zinc aspartate alone
# Description: In den nachfolgenden Beispielen wurde die synergistische Wirkung der durch die erfindungsgemässe Verwendung hergestellten pharmazeutischen Präparate mit organische Schwefelverbindungen enthaltenden Präparaten anhand des Strahlenschutzes getestet und es wurde auch die Strahlenschutzwirkung der Zinkionen enthaltenden Präparate mit bisher bekannten Strahlenschutzpräparaten an Mäusen getestet. Die Versuche wurden mit weiblichen C3H Mäusen (GL. Bomholtgard, Ry, Dänemark) durchgeführt, die 20 bis 22 g wogen. Die Mäuse wurden unter Bedingungen gehalten, wo sie so viel Standard-Nagetierfutter (Nafag Pellts) fressen und so viel Leitungswasser trinken können, wie sie wollten. Die Bestrahlung erfolgte mit Gammastrahlen aus einer Kobalt-60 Quelle. Es wurden unterschiedliche Bestrahlungen vorgenommen, und zwar mit 9 Gy, 10 Gy, 11 Gy, 12 Gy, 13 Gy und 14 Gy.
# 10 Minuten vor der Bestrahlung, 30 Minuten vor der Bestrahlung oder 120 Minuten vor der Bestrahlung wurde ein durch die erfindungsgemässe Verwendung hergestelltes synergistisch wirkendes pharmazeutisches Präparat, bzw. ein entsprechendes, Zinkionen enthaltendes Strahlenschutzpräparat oder ein aus dem Stand der Technik bekanntes Strahlenschutzpräparat zu Vergleichszwecken durch intraperitoneale Injektion verabreicht.
# Bei der Gruppe der Mäuse zu Vergleichszwecken, die ohne Verabreichung eines Strahlenschutzpräparates bestrahlt wurden, erfolgte 10 Minuten vor der Bestrahlung die Verabreichung von destilliertem Wasser. Bei diesen unbehandelten Mäusen überlebten nur 50% der Tiere eine Bestrahlung von 8 Gy, d.h. der LD₅₀-Wert betrug 8 Gy.
# Nach den Arbeitsweisen der vorangegangenen Beispiele 1 bis 4, wurden weitere Tests mit den genannten weiblichen Mäusen durchgeführt, und zwar unter Verwendung der angeführten Zinksalze. Die bei diesen Tests erzielten Ergebnisse sind in der nachfolgenden Tabelle I zusammengestellt. Für jede der angewandten Bestrahlungsstärken ist in der Rubrik "Anzahl" diejenige Anzahl der Mäuse angeführt, welche die Bestrahlung überlebten, geteilt durch die Gesamtzahl der Mäuse, welche bestrahlt wurden. Ein entsprechender Wert von 1/10 bedeutet also, dass von 10 bestrahlten Mäusen eine überlebt hatte. In der Spalte mit der Bezeichnung "Prozent", ist die Prozent-Ueberlebensrate angeführt. Bei einer überlebenden Maus pro 10 getesteten Mäusen beträgt diese Ueberlebensrate 10 %.
# Zu Vergleichszwecken sind in der nachfolgenden Tabelle III die Ueberlebensraten von Mäusen zusammengestellt, die nach dem in Beispiel 5 beschriebenen Verfahren einer Vorbehandlung mit einem bekannten schwefelhaltigen Strahlenschutzmittel unterworfen worden waren. Orientierende Vorversuche hatten gezeigt, dass diese Strahlenschutzmittel bereits ihre Wirkung verloren hatten, wenn sie zwei Stunden vor der Einwirkung der Bestrahlung verabreicht worden waren. Die Bestrahlung wurde, wie aus der Tabelle ersichtlich ist, zwei Minuten nach der Verabreichung, in den meisten Fällen 10 Minuten nach der Verabreichung, aber auch 30 Minuten, bzw. 120 Minuten nach der Verabreichung durchgeführt. Die Werte deuten darauf hin, dass 30 Minuten nach der Verabreichung die Schutzwirkung schon wieder deutlich nachgelassen hat. Für jede Bestrahlungsstärke ist wiederum die Anzahl der Tiere angeführt, die nach 30 Tagen überlebt haben, geteilt durch die Gesamtzahl der Tiere, die behandelt und bestrahlt worden waren.
# Anhand dieses Beispiels soll die synergistische Wirkung von Zinkionen und Schwefelverbindungen bezüglich eines Strahlenschutzes erläutert werden. Es wurde wieder in der gleichen Weise gearbeitet, wie in den vorangegangenen Beispielen 1 bis 3, bzw. 5, und es wurde auch die gleiche Art an weiblichen Mäusen getestet. Die Verabreichung der Zinkionen enthaltenden Lösung und der Lösung der Schwefelverbindung erfolgte entweder nacheinander oder gleichzeitig durch intraperitoneale Injektion.
# In allen Fällen wurde die Ueberlebensrate 30 Tage nach der Einwirkung der Bestrahlung bestimmt.
# Mäuse = experiment: Toxicity of the zinc salts used as radiation protection agents (LD50); type: in vivo
# Description: In diesem Beispiel wurde die Toxizität der als Strahlenschutzmittel eingesetzten Zinksalze getestet.
# Der LD₅₀-Wert betrug für das Zinkaspartat 55 mg/kg Körpergewicht, für das Zinkchlorid 24 mg/kg Körpergewicht und für das Zinksulfat 45 mg/kg Körpergewicht.
# [1] = Floersheim, Agents Actions 16, 580 (1985); cited from earlier work
# [2] = 10 mg/kg i.p., 10 min before 9 Gy
# [3] = 20 mg/kg i.p., 10 min before 9 Gy
# [4] = 20 mg/kg i.p., 10 min before 10 Gy
# [5] = 20 mg/kg i.p., 10 min before 11 Gy
# [6] = 20 mg/kg i.p., 30 min before 9 Gy
# [7] = 20 mg/kg i.p., 30 min before 10 Gy
# [8] = 20 mg/kg i.p., 120 min before 9 Gy
# [9] = 20 mg/kg i.p., 120 min before 10 Gy
# [10] = 30 mg/kg i.p., 10 min before 9 Gy
# [11] = 30 mg/kg i.p., 10 min before 10 Gy
# [12] = 30 mg/kg i.p., 10 min before 11 Gy
# [13] = 30 mg/kg i.p., 10 min before 12 Gy
# [14] = 30 mg/kg i.p., 10 min before 13 Gy
# [15] = 30 mg/kg i.p., 30 min before 9 Gy
# [16] = 30 mg/kg i.p., 30 min before 10 Gy
# [17] = 30 mg/kg i.p., 30 min before 11 Gy
# [18] = 30 mg/kg i.p., 30 min before 12 Gy
# [19] = 30 mg/kg i.p., 30 min before 13 Gy
# [20] = 30 mg/kg i.p., 120 min before 9 Gy
# [21] = 30 mg/kg i.p., 120 min before 10 Gy
# [22] = 30 mg/kg i.p., 120 min before 11 Gy
# [23] = 30 mg/kg i.p., 120 min before 12 Gy
# [24] = 30 mg/kg i.p., 120 min before 13 Gy
# [25] = 40 mg/kg i.p., 10 min before 9 Gy
# [26] = 40 mg/kg i.p., 10 min before 10 Gy
# [27] = 40 mg/kg i.p., 10 min before 11 Gy
# [28] = 40 mg/kg i.p., 10 min before 12 Gy
# [29] = 40 mg/kg i.p., 10 min before 13 Gy
# [30] = 40 mg/kg i.p., 30 min before 9 Gy
# [31] = 40 mg/kg i.p., 30 min before 10 Gy
# [32] = 40 mg/kg i.p., 30 min before 11 Gy
# [33] = 40 mg/kg i.p., 30 min before 12 Gy
# [34] = 40 mg/kg i.p., 30 min before 13 Gy
# [35] = 40 mg/kg i.p., 120 min before 9 Gy
# [36] = 40 mg/kg i.p., 120 min before 10 Gy
# [37] = 40 mg/kg i.p., 120 min before 11 Gy
# [38] = 40 mg/kg i.p., 120 min before 12 Gy
# [39] = 40 mg/kg i.p., 120 min before 13 Gy
substance,measurement,setting,value
Zink-bis-(DL-hydrogenaspartat) [Zinkaspartat],Ueberlebensrate nach Bestrahlung mit 9 Gy %,weiblichen C3H Mäusen; [2],10%
same,Ueberlebensrate nach Bestrahlung mit 9 Gy Anzahl,weiblichen C3H Mäusen; [2],1/10
same,Ueberlebensrate nach Bestrahlung mit 9 Gy %,weiblichen C3H Mäusen; [3],67%
same,Ueberlebensrate nach Bestrahlung mit 9 Gy Anzahl,weiblichen C3H Mäusen; [3],26/39
same,Ueberlebensrate nach Bestrahlung mit 10 Gy %,weiblichen C3H Mäusen; [4],29%
same,Ueberlebensrate nach Bestrahlung mit 10 Gy Anzahl,weiblichen C3H Mäusen; [4],13/45
same,Ueberlebensrate nach Bestrahlung mit 11 Gy %,weiblichen C3H Mäusen; [5],0%
same,Ueberlebensrate nach Bestrahlung mit 11 Gy Anzahl,weiblichen C3H Mäusen; [5],0/20
same,Ueberlebensrate nach Bestrahlung mit 9 Gy %,weiblichen C3H Mäusen; [6],60%
same,Ueberlebensrate nach Bestrahlung mit 9 Gy Anzahl,weiblichen C3H Mäusen; [6],6/10
same,Ueberlebensrate nach Bestrahlung mit 10 Gy %,weiblichen C3H Mäusen; [7],0%
same,Ueberlebensrate nach Bestrahlung mit 10 Gy Anzahl,weiblichen C3H Mäusen; [7],1/10
same,Ueberlebensrate nach Bestrahlung mit 9 Gy %,weiblichen C3H Mäusen; [8],50%
same,Ueberlebensrate nach Bestrahlung mit 9 Gy Anzahl,weiblichen C3H Mäusen; [8],5/10
same,Ueberlebensrate nach Bestrahlung mit 10 Gy %,weiblichen C3H Mäusen; [9],0%
same,Ueberlebensrate nach Bestrahlung mit 10 Gy Anzahl,weiblichen C3H Mäusen; [9],0/10
same,Ueberlebensrate nach Bestrahlung mit 9 Gy %,weiblichen C3H Mäusen; [10],88%
same,Ueberlebensrate nach Bestrahlung mit 9 Gy Anzahl,weiblichen C3H Mäusen; [10],43/49
same,Ueberlebensrate nach Bestrahlung mit 10 Gy %,weiblichen C3H Mäusen; [11],74^+ %
same,Ueberlebensrate nach Bestrahlung mit 10 Gy Anzahl,weiblichen C3H Mäusen; [11],43/58
same,Ueberlebensrate nach Bestrahlung mit 11 Gy %,weiblichen C3H Mäusen; [12],10%
same,Ueberlebensrate nach Bestrahlung mit 11 Gy Anzahl,weiblichen C3H Mäusen; [12],3/30
same,Ueberlebensrate nach Bestrahlung mit 12 Gy %,weiblichen C3H Mäusen; [13],3%
same,Ueberlebensrate nach Bestrahlung mit 12 Gy Anzahl,weiblichen C3H Mäusen; [13],1/30
same,Ueberlebensrate nach Bestrahlung mit 13 Gy %,weiblichen C3H Mäusen; [14],0%
same,Ueberlebensrate nach Bestrahlung mit 13 Gy Anzahl,weiblichen C3H Mäusen; [14],0/20
same,Ueberlebensrate nach Bestrahlung mit 9 Gy %,weiblichen C3H Mäusen; [15],80%
same,Ueberlebensrate nach Bestrahlung mit 9 Gy Anzahl,weiblichen C3H Mäusen; [15],8/10
same,Ueberlebensrate nach Bestrahlung mit 10 Gy %,weiblichen C3H Mäusen; [16],70%
same,Ueberlebensrate nach Bestrahlung mit 10 Gy Anzahl,weiblichen C3H Mäusen; [16],21/30
same,Ueberlebensrate nach Bestrahlung mit 11 Gy %,weiblichen C3H Mäusen; [17],60%
same,Ueberlebensrate nach Bestrahlung mit 11 Gy %,"weiblichen C3H Mäusen; 30 mg/kg i.p., 30 min before 11 Gy, listed as Zink-aspartat",60^+ %
same,Ueberlebensrate nach Bestrahlung mit 11 Gy Anzahl,weiblichen C3H Mäusen; [17],24/40
same,Ueberlebensrate nach Bestrahlung mit 12 Gy %,weiblichen C3H Mäusen; [18],57%
same,Ueberlebensrate nach Bestrahlung mit 12 Gy %,"weiblichen C3H Mäusen; 30 mg/kg i.p., 30 min before 12 Gy, listed as Zink-aspartat",57^+ %
same,Ueberlebensrate nach Bestrahlung mit 12 Gy Anzahl,weiblichen C3H Mäusen; [18],17/30
same,Ueberlebensrate nach Bestrahlung mit 13 Gy %,weiblichen C3H Mäusen; [19],17%
same,Ueberlebensrate nach Bestrahlung mit 13 Gy Anzahl,weiblichen C3H Mäusen; [19],5/30
same,Ueberlebensrate nach Bestrahlung mit 9 Gy %,weiblichen C3H Mäusen; [20],90^+ %
same,Ueberlebensrate nach Bestrahlung mit 9 Gy Anzahl,weiblichen C3H Mäusen; [20],9/10
same,Ueberlebensrate nach Bestrahlung mit 10 Gy %,weiblichen C3H Mäusen; [21],40%
same,Ueberlebensrate nach Bestrahlung mit 10 Gy Anzahl,weiblichen C3H Mäusen; [21],8/20
same,Ueberlebensrate nach Bestrahlung mit 11 Gy %,weiblichen C3H Mäusen; [22],53%
same,Ueberlebensrate nach Bestrahlung mit 11 Gy Anzahl,weiblichen C3H Mäusen; [22],16/30
same,Ueberlebensrate nach Bestrahlung mit 12 Gy %,weiblichen C3H Mäusen; [23],35%
same,Ueberlebensrate nach Bestrahlung mit 12 Gy Anzahl,weiblichen C3H Mäusen; [23],7/20
same,Ueberlebensrate nach Bestrahlung mit 13 Gy %,weiblichen C3H Mäusen; [24],14%
same,Ueberlebensrate nach Bestrahlung mit 13 Gy Anzahl,weiblichen C3H Mäusen; [24],4/29
same,Ueberlebensrate nach Bestrahlung mit 9 Gy %,weiblichen C3H Mäusen; [25],59%
same,Ueberlebensrate nach Bestrahlung mit 9 Gy Anzahl,weiblichen C3H Mäusen; [25],17/29
same,Ueberlebensrate nach Bestrahlung mit 10 Gy %,weiblichen C3H Mäusen; [26],55%
same,Ueberlebensrate nach Bestrahlung mit 10 Gy Anzahl,weiblichen C3H Mäusen; [26],16/29
same,Ueberlebensrate nach Bestrahlung mit 11 Gy %,weiblichen C3H Mäusen; [27],3%
same,Ueberlebensrate nach Bestrahlung mit 11 Gy Anzahl,weiblichen C3H Mäusen; [27],1/40
same,Ueberlebensrate nach Bestrahlung mit 12 Gy %,weiblichen C3H Mäusen; [28],17%
same,Ueberlebensrate nach Bestrahlung mit 12 Gy Anzahl,weiblichen C3H Mäusen; [28],5/30
same,Ueberlebensrate nach Bestrahlung mit 13 Gy %,weiblichen C3H Mäusen; [29],5%
same,Ueberlebensrate nach Bestrahlung mit 13 Gy Anzahl,weiblichen C3H Mäusen; [29],1/19
same,Ueberlebensrate nach Bestrahlung mit 9 Gy %,weiblichen C3H Mäusen; [30],45%
same,Ueberlebensrate nach Bestrahlung mit 9 Gy Anzahl,weiblichen C3H Mäusen; [30],9/20
same,Ueberlebensrate nach Bestrahlung mit 10 Gy %,weiblichen C3H Mäusen; [31],70%
same,Ueberlebensrate nach Bestrahlung mit 10 Gy Anzahl,weiblichen C3H Mäusen; [31],7/10
same,Ueberlebensrate nach Bestrahlung mit 11 Gy %,weiblichen C3H Mäusen; [32],50%
same,Ueberlebensrate nach Bestrahlung mit 11 Gy Anzahl,weiblichen C3H Mäusen; [32],5/10
same,Ueberlebensrate nach Bestrahlung mit 12 Gy %,weiblichen C3H Mäusen; [33],30%
same,Ueberlebensrate nach Bestrahlung mit 12 Gy Anzahl,weiblichen C3H Mäusen; [33],3/10
same,Ueberlebensrate nach Bestrahlung mit 13 Gy %,weiblichen C3H Mäusen; [34],24^+ %
same,Ueberlebensrate nach Bestrahlung mit 13 Gy Anzahl,weiblichen C3H Mäusen; [34],7/29
same,Ueberlebensrate nach Bestrahlung mit 9 Gy %,weiblichen C3H Mäusen; [35],50%
same,Ueberlebensrate nach Bestrahlung mit 9 Gy Anzahl,weiblichen C3H Mäusen; [35],5/10
same,Ueberlebensrate nach Bestrahlung mit 10 Gy %,weiblichen C3H Mäusen; [36],50%
same,Ueberlebensrate nach Bestrahlung mit 10 Gy Anzahl,weiblichen C3H Mäusen; [36],5/10
same,Ueberlebensrate nach Bestrahlung mit 11 Gy %,weiblichen C3H Mäusen; [37],10%
same,Ueberlebensrate nach Bestrahlung mit 11 Gy Anzahl,weiblichen C3H Mäusen; [37],1/10
same,Ueberlebensrate nach Bestrahlung mit 12 Gy %,weiblichen C3H Mäusen; [38],0%
same,Ueberlebensrate nach Bestrahlung mit 12 Gy Anzahl,weiblichen C3H Mäusen; [38],0/10
same,Ueberlebensrate nach Bestrahlung mit 13 Gy %,weiblichen C3H Mäusen; [39],5%
same,Ueberlebensrate nach Bestrahlung mit 13 Gy Anzahl,weiblichen C3H Mäusen; [39],1/19
same,Ueberlebensrate in %,weiblichen C3H Mäusen; 8 Gy,100%
same,Ueberlebensrate in %,weiblichen C3H Mäusen; 9 Gy,90%
same,Ueberlebensrate in %,weiblichen C3H Mäusen; 10 Gy,74%
same,Ueberlebensrate in %,weiblichen C3H Mäusen; 11 Gy,60%
same,Ueberlebensrate in %,weiblichen C3H Mäusen; 12 Gy,57%
same,Ueberlebensrate in %,weiblichen C3H Mäusen; 13 Gy,24%
same,Ueberlebensrate in %,weiblichen C3H Mäusen; 14 Gy,0%
same,Strahlenschutzwirkung,weiblichen C3H Mäusen; comparison with Zinkchlorid and Zinksulfat,Besonders vorteilhaft
same,Ueberleben einer Bestrahlung von 14 Gy,"weiblichen C3H Mäusen; 20 mg/kg body weight, 14 Gy",nicht überlebten
same,Ueberleben einer Bestrahlung von 14 Gy,"weiblichen C3H Mäusen; 30 mg/kg body weight, 14 Gy",nicht überlebten
same,LD₅₀-Wert,Mäuse,55 mg/kg Körpergewicht
same,akute Toxizität von Aethanol,[1],vermindert
